{"source": "patent US11992471B2", "about": "“Reelin/VEGF-C production/activation promoter and skin external composition using the same” (AMOREPACIFIC CORPORATION, priority 2021, dated 2024)", "type_in_all_cases": "cell-based", "key": {"[1]": {"test_system": "Human dermal lymphatic endothelial cells (HDLEC)", "assay": "Cytotoxicity analysis (WST-8 cell viability)", "settings": "within a concentration range of 200 ppm, cultured 24 hours and 72 hours, FIG. 1", "description": "Human dermal lymphatic endothelial cells (HDLEC, PromoCell, Germany) were newly cultured in 96 well dishes for one day and then treated with a compound represented by Chemical Formula E-1 (Biogenics Company) at each concentration of 0 ppm ( ? ) to 200 ppm ( ? ). The cells were cultured for 24 hours and 72 hours, and then measured with respect to absorbance at 450 nm by using a QuantiMax WST-8 Cell viability assay kit to check cell viability, and the results are shown in FIG. 1."}, "reelin": {"test_system": "reelin", "assay": "Reelin cytokine analysis (human reelin ELISA)", "settings": "HDLEC, 1 ppm and 10 ppm, 48 hours, compared with cells with no treatment (100%), FIG. 2", "description": "(§1) After culturing human dermal lymphatic endothelial cells in 6 well plates for 24 hours, while the cells with no treatment (N.T) were used as a reference (100%), the cells were treated with the compound represented by Chemical Formula E-1 at each concentration of 1 ppm and 10 ppm and cultured for 48 hours and then measured with respect to production and activity of reelin through a reelin cytokine analysis by using human reelin ELISA Kit (Mybiosource, U.S.A.) according to a manual, and the results are shown in FIG. 2."}, "VEGF-C": {"test_system": "VEGF-C", "assay": "VEGF-C cytokine analysis (VEGFC human ELISA)", "settings": "HDLEC, 1 ppm and 10 ppm, 48 hours, compared with cells with no treatment (100%), FIG. 3", "description": "as §1, with “VEGF-C” for “reelin”, “using a VEGFC” for “using”, “human” for “human reelin”, “(ThermoFisher,” for “(Mybiosource,”, “3.” for “2.”"}}, "data": [{"smiles": "NCCS(=O)(=O)O", "note": "[Chemical Formula E-1]", "values": [{"measurement": "cytotoxicity (cell viability)", "setting": "[1]", "result": "no cytotoxicity"}, {"measurement": "production and activity of reelin", "setting": "reelin", "result": "further improve production and activity of reelin"}, {"measurement": "production and activity of VEGF-C", "setting": "VEGF-C", "result": "further improve production and activity of VEGF-C"}]}]}
